# Where two headings read alike, the source gives them in different places.
# Columns and labels:
# Type in all cases: cell-based
# [1] = test system: 100 A. baumannii strains (50 MDR, 50 non-MDR); test: MIC broth microdilution at IHMA Europe, panel of 100 strains; conditions: for MIC / MIC50 / MIC90: Acinetobacter baumannii; for MIC50: read-out: MIC 50; for MIC90: read-out: MIC 90
# E. coli ATCC 35218 = test: IHMA QC MIC; conditions: Escherichia coli, ATCC35218, read-out: MIC (QC, repeated tests)
# Procedure: (§1) The panel of Hungarian clinical isolates and controls measured following the same method as detailed above, and albeit measurements were carried out in 384-well microtiter plates (Corning Inc.).
# A. baumannii ATCC 17978 = test: IHMA QC MIC
# Procedure: as §1
compound,measurement,setting,value
"Cc1[nH]c(C(=O)Nc2nc3c(N4[C@@H]5CC[C@H]4COC5)cc(C(=O)O)cc3s2)c(Cl)c1Cl [7h, 4-((1R,5S)-3-Oxa-8-azabicyclo[3.2.1]octan-8-yl)-2-(3,4-dichloro-5-methyl-1H-pyrrole-2-carboxamido)benzo[d]thiazole-6-carboxylic Acid]",MIC,"[1]; A. baumannii IHMA 2051503, Serbia 2019, MDR, read-out: MIC",2 µg/mL
same,MIC,"[1]; A. baumannii IHMA 2058329, Slovenia 2019, Non-MDR, read-out: MIC",4 µg/mL
same,MIC,"[1]; A. baumannii IHMA 2065587, France 2019, Non-MDR, read-out: MIC",1 µg/mL
same,MIC,"[1]; A. baumannii IHMA 2099294, United Kingdom 2019, Non-MDR, read-out: MIC",2 µg/mL
same,MIC,"[1]; A. baumannii IHMA 2129256, Qatar 2019, Non-MDR, read-out: MIC",4 µg/mL
same,MIC,"[1]; A. baumannii IHMA 2154584, Israel 2020, MDR, read-out: MIC",2 µg/mL
same,MIC,"[1]; A. baumannii IHMA 2155340, Kenya 2020, MDR, read-out: MIC",2 µg/mL
same,MIC,"[1]; A. baumannii IHMA 2156634, Turkey 2020, MDR, read-out: MIC",2 µg/mL
same,MIC,"[1]; A. baumannii IHMA 2156709, Turkey 2020, MDR, read-out: MIC",2 µg/mL
same,MIC,"[1]; A. baumannii IHMA 2157614, Australia 2020, Non-MDR, read-out: MIC",4 µg/mL
same,MIC,"[1]; A. baumannii IHMA 2177232, Lithuania 2020, MDR, read-out: MIC",4 µg/mL
same,MIC,"[1]; A. baumannii IHMA 2177489, Lithuania 2020, MDR, read-out: MIC",2 µg/mL
same,MIC,"[1]; A. baumannii IHMA 2178574, Ukraine 2020, Non-MDR, read-out: MIC",4 µg/mL
same,MIC,"[1]; A. baumannii IHMA 2180134, Malaysia 2020, Non-MDR, read-out: MIC",2 µg/mL
same,MIC,"[1]; A. baumannii IHMA 2180142, Malaysia 2020, MDR, read-out: MIC",2 µg/mL
same,MIC,"[1]; A. baumannii IHMA 2181370, Morocco 2020, MDR, read-out: MIC",2 µg/mL
same,MIC,"[1]; A. baumannii IHMA 2183729, Argentina 2020, MDR, read-out: MIC",4 µg/mL
same,MIC,"[1]; A. baumannii IHMA 2183849, Argentina 2020, Non-MDR, read-out: MIC",2 µg/mL
same,MIC,"[1]; A. baumannii IHMA 2184382, Japan 2020, Non-MDR, read-out: MIC",2 µg/mL
same,MIC,"[1]; A. baumannii IHMA 2193375, Venezuela 2020, MDR, read-out: MIC",2 µg/mL
same,MIC,"[1]; A. baumannii IHMA 2193485, Venezuela 2020, Non-MDR, read-out: MIC",1 µg/mL
same,MIC,"[1]; A. baumannii IHMA 2193607, Venezuela 2020, MDR, read-out: MIC",2 µg/mL
same,MIC,"[1]; A. baumannii IHMA 2195460, Italy 2020, MDR, read-out: MIC",2 µg/mL
same,MIC,"[1]; A. baumannii IHMA 2196914, South Africa 2020, MDR, read-out: MIC",2 µg/mL
same,MIC,"[1]; A. baumannii IHMA 2196959, South Africa 2020, MDR, read-out: MIC",2 µg/mL
same,MIC,"[1]; A. baumannii IHMA 2203763, Spain 2020, MDR, read-out: MIC",4 µg/mL
same,MIC,"[1]; A. baumannii IHMA 2205144, Korea, South 2020, MDR, read-out: MIC",2 µg/mL
same,MIC,"[1]; A. baumannii IHMA 2206459, Taiwan 2020, MDR, read-out: MIC",2 µg/mL
same,MIC,"[1]; A. baumannii IHMA 2206507, Taiwan 2020, Non-MDR, read-out: MIC",1 µg/mL
same,MIC,"[1]; A. baumannii IHMA 2212575, Hungary 2020, Non-MDR, read-out: MIC",4 µg/mL
same,MIC,"[1]; A. baumannii IHMA 2215307, Hong Kong 2020, Non-MDR, read-out: MIC",2 µg/mL
same,MIC,"[1]; A. baumannii IHMA 2216586, Taiwan 2020, MDR, read-out: MIC",2 µg/mL
same,MIC,"[1]; A. baumannii IHMA 2223200, Colombia 2020, Non-MDR, read-out: MIC",2 µg/mL
same,MIC,"[1]; A. baumannii IHMA 2224017, Panama 2020, MDR, read-out: MIC",4 µg/mL
same,MIC,"[1]; A. baumannii IHMA 2224303, Panama 2020, Non-MDR, read-out: MIC",4 µg/mL
same,MIC,"[1]; A. baumannii IHMA 2231797, Greece 2020, MDR, read-out: MIC",2 µg/mL
same,MIC,"[1]; A. baumannii IHMA 2233099, Guatemala 2020, MDR, read-out: MIC",4 µg/mL
same,MIC,"[1]; A. baumannii IHMA 2233430, Kazakhstan 2020, MDR, read-out: MIC",2 µg/mL
same,MIC,"[1]; A. baumannii IHMA 2233548, Kazakhstan 2020, Non-MDR, read-out: MIC",4 µg/mL
same,MIC,"[1]; A. baumannii IHMA 2238964, Thailand 2020, MDR, read-out: MIC",4 µg/mL
same,MIC,"[1]; A. baumannii IHMA 2239052, Thailand 2020, Non-MDR, read-out: MIC",4 µg/mL
same,MIC,"[1]; A. baumannii IHMA 2261047, Belgium 2020, MDR, read-out: MIC",4 µg/mL
same,MIC,"[1]; A. baumannii IHMA 2261633, Canada 2020, Non-MDR, read-out: MIC",4 µg/mL
same,MIC,"[1]; A. baumannii IHMA 2274234, South Africa 2020, MDR, read-out: MIC",2 µg/mL
same,MIC,"[1]; A. baumannii IHMA 2274364, South Africa 2020, MDR, read-out: MIC",2 µg/mL
same,MIC,"[1]; A. baumannii IHMA 2275237, Chile 2020, Non-MDR, read-out: MIC",2 µg/mL
same,MIC,"[1]; A. baumannii IHMA 2275751, Jordan 2020, MDR, read-out: MIC",2 µg/mL
same,MIC,"[1]; A. baumannii IHMA 2316205, United States 2020, MDR, read-out: MIC",2 µg/mL
same,MIC,"[1]; MDR n = 50, read-out: MAX (maximum MIC; all strains inhibited)",4 µg/mL
same,MIC50,[1]; MDR n = 50,2 µg/mL
same,MIC90,[1]; MDR n = 50,4 µg/mL
same,MIC,"[1]; MDR n = 50, read-out: MIN (minimum MIC)",1 µg/mL
same,MIC,"[1]; all isolates n = 100, read-out: MAX (maximum MIC; all strains inhibited)",8 µg/mL
same,MIC50,[1]; all isolates n = 100,2 µg/mL
same,MIC90,[1]; all isolates n = 100,4 µg/mL
same,MIC,"[1]; all isolates n = 100, read-out: MIN (minimum MIC)",1 µg/mL
same,MIC,"[1]; non-MDR n = 50, read-out: MAX (maximum MIC)",8 µg/mL
same,MIC50,[1]; non-MDR n = 50,2 µg/mL
same,MIC90,[1]; non-MDR n = 50,4 µg/mL
same,MIC,"[1]; non-MDR n = 50, read-out: MIN (minimum MIC)",1 µg/mL
same,MAX (maximum MIC; all strains inhibited),[1]; MDR n = 50,4 µg/mL
same,MAX (maximum MIC; all strains inhibited),[1]; all isolates n = 100,8 µg/mL
same,MIC,E. coli ATCC 35218,2 µg/mL
same,"MIC (QC, repeated tests)",A. baumannii ATCC 17978,1 µg/mL
